Patent US20180042941A1, “CABAZITAXEL AND ITS USE FOR TREATING METASTATIC PROSTATE CANCERS” (AVENTIS PHARMA S.A., priority 2013, published 2018)

What was measured:
tubulin = conditions: resulting in inhibition of microtubule depolymerization and tumor cell proliferation; cited from earlier work
[1] = test system: tumor models poorly or not sensitive to chemotherapy, including taxanes; conditions: cited from earlier work
[2] = test system: patients treated with cabazitaxel; conditions: cited from earlier work
[3] = test system: patient with metastatic prostate cancer; test: case reports of patients treated with cabazitaxel in combination with prednisone or prednisolone (adverse events); conditions: for WBC level: units not provided
Experimental: This example relates to the treatment of a patient with metastatic prostate cancer, according the following dosage: cabazitaxel (25 mg/m^2)+prednisone 10 mg daily+budesonide (9 mg daily).
This example relates to a patient (with prostate carcinoma) who initiated treatment with study drug cabazitaxel (20 mg/m^2) and prednisone (10 mg) (cycle 1).
This example relates to the treatment of a patient with a metastatic carcinoma of the prostate, according the following dosage: cabazitaxel 20 mg/m^2 intravenously (day 1) every 3 weeks and prednisone 10 mg PO daily, from day 1 continuously.
The treatment was as follows: cabazitaxel 20 mg/m^2 on day 1 every 3 weeks in combination with prednisone/prednisolone.
The following treatment was followed: cabazitaxel 25 mg/m^2 on day 1 every 3 weeks in combination with prednisone/prednisolone.
The dosage regimen was as follows: cabazitaxel 25 mg/m^2 intravenous infusion over 1 hour on day 1 of each 3 week cycle as well as oral prednisone/prednisolone 10 mg daily.
The following treatment was applied: cabazitaxel 20 mg/m^2 intravenously every 3 weeks, in combination with oral prednisone or prednisolone 10 mg daily.
This example relates to a patient with metastatic prostate cancer. The following treatment was followed: cabazitaxel 25 mg/m^2 intravenously (day 1) every 3 weeks and prednisone 10 mg PO daily, from day 1 continuously.
This patient was treated with cabazitaxel 20 mg/m^2 on day 1 every 3 weeks in combination with prednisone/prednisolone.
The following therapy dosage was used: cabazitaxel 25 mg/m^2 intravenously (day 1) every 3 weeks, plus prednisone 10 mg orally daily.
The therapy was as follows: the patient received cabazitaxel 25 mg/m^2 intravenous infusion over 1 hour on day 1 of each 3 week cycle as well as oral prednisone/prednisolone 10 mg daily.
The following dosage regimen was used: cabazitaxel 25 mg/m^2 on day 1 every 3 weeks in combination with prednisone/prednisolone.
This example relates to a patient with metastatic castration resistant prostate cancer not pretreated with chemotherapy. The following therapy was applied: cabazitaxel 25 mg/m^2 intravenously (day 1) every 3 weeks. Prednisone 10 mg PO daily, from day 1 continuously.
This example relates to a patient with metastatic castration resistant prostate cancer not pretreated with chemotherapy, having the following therapy: cabazitaxel 25 mg/m^2 intravenously (day 1) every 3 weeks and prednisone 10 mg PO daily, from day 1 continuously.
This example relates to a patient with metastatic castration resistant prostate cancer not pre-treated with chemotherapy. The following therapy was applied: cabazitaxel 20 mg/m^2 intravenously (day 1) every 3 weeks, prednisone 10 mg PO daily, from day 1 continuously.
The following dosage regimen was applied: cabazitaxel 25 mg/m^2 intravenously every 3 weeks, in combination with oral prednisone or prednisolone 10 mg daily.
The therapy involved the administration of cabazitaxel on day 1 every 3 weeks in combination with prednisone.
The following therapy was applied: cabazitaxel 25 mg/m^2 on day 1 every 3 weeks in combination with prednisolone.
The following dosage regimen was applied: cabazitaxel 20 mg/m^2 intravenously (day 1) every 3 weeks and prednisone 10 mg PO daily, from day 1 continuously.
The following dosage regimen was applied: cabazitaxel 20 mg/m^2 on day 1 every 3 weeks in combination with prednisolone.
The following dosage regimen was applied: cabazitaxel 25 mg/m^2 on day 1 every 3 weeks in combination with prednisone.
The applied dosage regimen was as follows: cabazitaxel 25 mg/m^2 intravenous infusion over 1 hour on day 1 of each 3 week cycle as well as oral prednisone 10 mg daily.

[4] = Ex 3, cabazitaxel 25 mg/m^2 + prednisone + budesonide
[5] = Ex 5, cabazitaxel 20 mg/m^2 + prednisone, cycle 4, day 5
[6] = Ex 5, cabazitaxel 20 mg/m^2 + prednisone, during hospitalization
[7] = Ex 7, cabazitaxel 25 mg/m^2 + prednisone
[8] = Ex 7, cabazitaxel 25 mg/m^2 + prednisone, day 9 of first cycle
[9] = Ex 12, cabazitaxel 25 mg/m^2 + prednisone
[10] = Ex 16, cabazitaxel 25 mg/m^2 + prednisolone
[11] = Ex 16, cabazitaxel 25 mg/m^2 + prednisolone, five days after hospitalization
[12] = Ex 20, cabazitaxel 25 mg/m^2 + prednisolone, after intensive care
[13] = Ex 20, cabazitaxel 25 mg/m^2 + prednisolone, on admission

CO[C@H]1C(=O)[C@]2(C)[C@@H](OC)C[C@H]3OC[C@@]3(OC(C)=O)[C@H]2[C@H](OC(=O)c2ccccc2)[C@]2(O)C[C@H](OC(=O)[C@H](O)[C@@H](NC(=O)OC(C)(C)C)c3ccccc3)C(C)=C1C2(C)C [cabazitaxel, 4α-acetoxy-2α-benzoyloxy-5β,20-epoxy-1β-hydroxy-7β,10β-dimethoxy-9-oxo-11-taxen-13α-yl (2R,3S)-3-tert-butoxycarbonyl-amino-2-hydroxy-3-phenylpropionate]
action on tubulin (tubulin): binds to and stabilizes tubulin
activity in tumor models [1]: active
gastrointestinal adverse reactions reported [2]: Gastrointestinal (GI) hemorrhage and perforation, ileus, colitis, including fatal outcome
control fibrogastroscopy finding ([3]; Ex 1, cabazitaxel 20 mg/m^2 + prednisone, ten days after antisecretory and antiulcer therapy): atrophic gastritis
outcome of event ([3]; Ex 1, cabazitaxel 20 mg/m^2 + prednisone, ten days after onset of epigastric pain): fully recovered
adverse event complained of ([3]; Ex 1, patient, cabazitaxel 20 mg/m^2 every 3 weeks + prednisone 10 mg daily, 15th day of cycle 1): epigastric pain
fibrogastroduodenoscopy finding ([3]; Ex 1, patient, cabazitaxel 20 mg/m^2 every 3 weeks + prednisone 10 mg daily, two days after 15th day of cycle 1): acute ulcer in the small curvature
colonic spasm (grade) ([3]; Ex 2, cabazitaxel 20 mg/m^2 + prednisone, during 7th cycle): grade 2 to grade 1
outcome of colitis ([3]; Ex 2, cabazitaxel 20 mg/m^2 + prednisone, three days later): recovered
colitis (grade) ([3]; Ex 2, patient, cabazitaxel 20 mg/m^2 every 3 weeks + prednisone 10 mg daily, 75 days after first, 6 days after most recent dose (cycle 4)): 3
colitis (grade) [3, 4]: 2
outcome of events [3, 4]: no more episodes of SVT or diarrhea
white blood cell (WBC) ([3]; Ex 3, cabazitaxel 25 mg/m^2 + prednisone + budesonide, 45 days after first dose, normal 4-10): 6.9
haemoglobin ([3]; Ex 3, cabazitaxel 25 mg/m^2 + prednisone + budesonide, 45 days after first dose, normal 8.5-11): 7.3
creatinine ([3]; Ex 3, cabazitaxel 25 mg/m^2 + prednisone + budesonide, 45 days after first dose, normal 60-110): 94
supraventricular tachycardia with angina (grade) ([3]; Ex 3, cabazitaxel 25 mg/m^2 + prednisone + budesonide, 45 days after first, 3 days after most recent dose): 3
sigmoidoscopy finding ([3]; Ex 3, cabazitaxel 25 mg/m^2 + prednisone + budesonide, six days later): severe colitis
diarrhea ([3]; Ex 3, patient, cabazitaxel 25 mg/m^2 + prednisone 10 mg daily + budesonide 9 mg daily, 43 days after first, 1 day after most recent dose): slight diarrhea
neutropenia ([3]; Ex 4, cabazitaxel 20 mg/m^2 + prednisone, during enterocolitis): no neutropenia
outcome of event ([3]; Ex 4, cabazitaxel 20 mg/m^2 + prednisone, three days later): recovered
enterocolitis (grade) ([3]; Ex 4, patient, cabazitaxel 20 mg/m^2 + prednisone 10 mg, 145 days after first, 7 days after most recent dose (cycle 7)): 3
gastritis (grade) [3, 5]: 2
nausea (grade) [3, 5]: 2
WBC decrease (grade) [3, 6]: 3
WBC level [3, 6]: 2720
outcome of events ([3]; Ex 5, cabazitaxel 20 mg/m^2 + prednisone, leukopenia three days after corrective treatment, hypotension, nausea and gastritis one day later): recovered
WBC level ([3]; Ex 5, cabazitaxel 20 mg/m^2 + prednisone, on the day after): 1000
hypotension (grade) ([3]; Ex 5, patient, cabazitaxel 20 mg/m^2 every 3 weeks + prednisone 10 mg daily, cycle 4, day 5): 2
pneumonia (grade) ([3]; Ex 6, cabazitaxel 20 mg/m^2 + prednisone, day 7 of cycle 1): 4
outcome ([3]; Ex 6, cabazitaxel 20 mg/m^2 + prednisone, one day later, due to paralytic ileus and pneumonia): died
paralytic ileus (grade) ([3]; Ex 6, patient, cabazitaxel 20 mg/m^2 every 3 weeks + prednisone, day 4 of cycle 1): 4
time to recovery from colitis [3, 7]: 9 days
time to recovery from neutropenia [3, 7]: 5 days
diarrhea with blood in feces, number of episodes [3, 8]: more than 10 episodes
neutropenia (grade) [3, 8]: 4
colitis (grade) ([3]; Ex 7, cabazitaxel 25 mg/m^2 + prednisone, neutropenic colitis, day 9 of first cycle): 3
absolute neutrophil count ([3]; Ex 7, patient, cabazitaxel 25 mg/m^2 every 3 weeks + prednisone 10 mg, day 9 of first cycle): 0.01
clostridium difficile infection (grade) ([3]; Ex 8, cabazitaxel 25 mg/m^2 + prednisone/prednisolone): 3
neutropenia (grade) ([3]; Ex 8, cabazitaxel 25 mg/m^2 + prednisone/prednisolone, 5th day of cycle 1): 3
outcome ([3]; Ex 8, cabazitaxel 25 mg/m^2 + prednisone/prednisolone, six days later): recovered
neutropenia (grade) ([3]; Ex 8, cabazitaxel 25 mg/m^2 + prednisone/prednisolone, two days later): 4
diarrhea (grade) ([3]; Ex 8, patient, cabazitaxel 25 mg/m^2 every 3 weeks + prednisone/prednisolone 10 mg daily, 5th day of cycle 1): 2
outcome ([3]; Ex 9, cabazitaxel 20 mg/m^2 + prednisolone, 5 days after initial hospitalization): death
neutrophil count ([3]; Ex 9, cabazitaxel 20 mg/m^2 + prednisolone, day following admission): 0.4
neutropenic colitis (grade) ([3]; Ex 9, cabazitaxel 20 mg/m^2 + prednisolone, final diagnosis): 4
diagnosis at hospitalization ([3]; Ex 9, patient, cabazitaxel 20 mg/m^2 every 3 weeks + prednisolone 10 mg daily, four days after second administration): acute bowel obstruction
neutropenic colitis (grade) ([3]; Ex 10, cabazitaxel 25 mg/m^2 + prednisone): 4
neutrophil count ([3]; Ex 10, cabazitaxel 25 mg/m^2 + prednisone, one day later, normal 1.4-7.7): 1e+08 L⁻¹
fever (grade) ([3]; Ex 10, cabazitaxel 25 mg/m^2 + prednisone, readmission two days after discharge): 1
outcome of event ([3]; Ex 10, cabazitaxel 25 mg/m^2 + prednisone, three days after readmission): resolved
diarrhea (grade) ([3]; Ex 10, patient, cabazitaxel 25 mg/m^2 every 3 weeks + prednisone 10 mg daily, 7 days after first cycle): 2
diagnosis ([3]; Ex 11, cabazitaxel 20 mg/m^2 + prednisone/prednisolone, nine days after last dose): Neutropenic infection (colitis)
platelet count ([3]; Ex 11, cabazitaxel 20 mg/m^2 + prednisone/prednisolone, nine days after last dose, NR 150×10^3-450×10^3): 93 ×10^3 cells/mm^3
CRP ([3]; Ex 11, cabazitaxel 20 mg/m^2 + prednisone/prednisolone, nine days after last dose, NR <0.5): 0.39 mg/dL
neutrophils ([3]; Ex 11, cabazitaxel 20 mg/m^2 + prednisone/prednisolone, nine days after last dose, normal 1.7×10^3-8.0×10^3): 1.12 ×10^3 cells/mm^3
outcome ([3]; Ex 11, cabazitaxel 20 mg/m^2 + prednisone/prednisolone, two days after admission): recovered
WBC ([3]; Ex 11, patient, cabazitaxel 20 mg/m^2 every 3 weeks + prednisone/prednisolone, nine days after last dose, normal 3.5×10^3-10.5×10^3): 2.41 ×10^3 cells/mm^3
enterocolitis (grade) [3, 9]: 4
febrile neutropenia (grade) [3, 9]: 4
renal failure (grade) [3, 9]: 4
septic shock (grade) [3, 9]: 4
outcome ([3]; Ex 12, cabazitaxel 25 mg/m^2 + prednisone, 2 days after admission, septic shock secondary to neutropenic enterocolitis): expired
fever ([3]; Ex 12, cabazitaxel 25 mg/m^2 + prednisone, 13 days after first dose): 38.5 °C
lower abdominal pain (grade) ([3]; Ex 12, patient, cabazitaxel 25 mg/m^2 every 3 weeks + prednisone 10 mg daily, 13 days after first dose): 3
outcome ([3]; Ex 13, cabazitaxel 25 mg/m^2 + prednisone/prednisolone, cause of death reported as progression of disease): died
diagnosis at hospitalization ([3]; Ex 13, patient, cabazitaxel 25 mg/m^2 every 3 weeks + prednisone/prednisolone 10 mg daily, ten days after first cycle): neutropenic enterocolitis and sepsis
outcome ([3]; Ex 14, cabazitaxel 25 mg/m^2 + prednisone, nine days after hospitalization): recovered
adverse event ([3]; Ex 14, patient, cabazitaxel 25 mg/m^2 every 3 weeks + prednisone, 232 days after first, 14 days after most recent dose (cycle 9)): neutropenic enteritis
outcome ([3]; Ex 15, cabazitaxel 25 mg/m^2 + prednisone, 4 days later): recovered
video coloscopy finding ([3]; Ex 15, cabazitaxel 25 mg/m^2 + prednisone, bacteriological tests later negative): probable infectious colitis
rectal bleeding (grade) ([3]; Ex 15, cabazitaxel 25 mg/m^2 + prednisone, cycle 6, 111 days after first, 6 days after last administration): 1
diarrhea (grade) ([3]; Ex 15, patient, cabazitaxel 25 mg/m^2 every 3 weeks + prednisone 10 mg daily, 108 days after first administration): 1
SAH (subarachnoid hemorrhage) (grade) [3, 10]: 2
urinary tract infection (grade) [3, 10]: 3
gastritis, final diagnosis (grade) ([3]; Ex 16, cabazitaxel 25 mg/m^2 + prednisolone, day 17 of cycle 1): 3
DIC (grade) [3, 11]: 4
INR [3, 11]: 1.6
outcome of gastritis ([3]; Ex 16, cabazitaxel 25 mg/m^2 + prednisolone, three days later): recovered
ulcus ventriculi, initial suspicion (grade) ([3]; Ex 16, patient, cabazitaxel 25 mg/m^2 every 3 weeks + prednisolone 10 mg, day 17 of cycle 1): 3
outcome ([3]; Ex 17, cabazitaxel 20 mg/m^2 + prednisone, seven days after hospitalization): recovered
adverse event (confirmed by emergency surgery) ([3]; Ex 17, patient, cabazitaxel 20 mg/m^2 every 3 weeks + prednisone 10 mg daily, 42 days after first, 21 days after most recent dose, life-threatening): perforation of ulcer
outcome of duodenal ulcers ([3]; Ex 18, cabazitaxel 25 mg/m^2 + prednisone or prednisolone): recovered
acute cystitis (grade) ([3]; Ex 18, cabazitaxel 25 mg/m^2 + prednisone or prednisolone, day 26 of cycle 1): 1
duodenal ulcers (grade) ([3]; Ex 18, patient, cabazitaxel 25 mg/m^2 every 3 weeks + prednisone or prednisolone 10 mg daily, four days after day 16 of cycle 1): 1
haematocrit ([3]; Ex 19, cabazitaxel + prednisone, 128 days after first dose, reference 42-52): 16.33%
digestive haemorrhage (grade) ([3]; Ex 19, cabazitaxel + prednisone, 128 days after first, 20 days after last dose, life threatening): 4
outcome ([3]; Ex 19, cabazitaxel + prednisone, discharged 9 days after hospitalization): recovered
haemoglobin ([3]; Ex 19, patient, cabazitaxel every 3 weeks + prednisone, 128 days after first, 20 days after last dose, reference 13.0-16.0): 51.2 g/L
haematocrit [3, 12]: 19.5%
haemoglobin [3, 12]: 72 g/L
platelets [3, 12]: 142 ×10^9
outcome ([3]; Ex 20, cabazitaxel 25 mg/m^2 + prednisolone, fifteen days after hospitalization): recovered
haematocrit [3, 13]: 19%
haemoglobin [3, 13]: 59 g/L
platelet ([3]; Ex 20, cabazitaxel 25 mg/m^2 + prednisolone, thirteen days after hospitalization, units not specified, 180-320 thousand in 1 mcl): 122
intestinal haemorrhage (grade) ([3]; Ex 20, patient, cabazitaxel 25 mg/m^2 every 3 weeks + prednisolone, 17 days after first dose, life threatening): 4
adverse event during hospital stay ([3]; Ex 21, cabazitaxel 20 mg/m^2 + prednisone): febrile neutropenia
outcome ([3]; Ex 21, cabazitaxel 20 mg/m^2 + prednisone, one day after discharge): recovered
small bowel obstruction (grade) ([3]; Ex 21, patient, cabazitaxel 20 mg/m^2 every 3 weeks + prednisone 10 mg daily, cycle 2, most likely secondary to adhesions): 4
outcome ([3]; Ex 22, cabazitaxel 20 mg/m^2 + prednisolone, three days later, after laproscopy): recovered
small intestinal obstruction (grade) ([3]; Ex 22, patient, cabazitaxel 20 mg/m^2 every 3 weeks + prednisolone, cycle 9, 181 days after first, 13 days after most recent dose): 3
general weakness (grade) ([3]; Ex 23, cabazitaxel 25 mg/m^2 + prednisone): 3
red blood loss per anum (grade) ([3]; Ex 23, cabazitaxel 25 mg/m^2 + prednisone, 85 days after first, 1 day after most recent dose): 1
outcome ([3]; Ex 23, cabazitaxel 25 mg/m^2 + prednisone, 117 days after first dose, due to disease progression): died
pathologic fracture lumbar spine 1 (grade) ([3]; Ex 23, cabazitaxel 25 mg/m^2 + prednisone, five days after day 95): 3
outcome of red blood loss per anum and hematuria ([3]; Ex 23, cabazitaxel 25 mg/m^2 + prednisone, two days after hospitalization): recovered
hematuria (grade) ([3]; Ex 23, patient, cabazitaxel 25 mg/m^2 every 3 weeks + prednisone, 85 days after first, 1 day after most recent dose): 3
outcome ([3]; Ex 24, cabazitaxel 25 mg/m^2 + prednisone, about a month after hospitalization, unknown cause, colitis ongoing): died
time to resolution of ileus ([3]; Ex 25, cabazitaxel 20 mg/m^2 + prednisone): 13 days
mechanical ileus due to unclear cause (grade) ([3]; Ex 25, cabazitaxel 20 mg/m^2 + prednisone, 215 days after first, 6 days after most recent dose): 2
diagnosis ([3]; Ex 25, patient, cabazitaxel 20 mg/m^2 every 3 weeks + prednisone 10 mg daily, 214 days after first dose): ileus
